Experiment [1] relates to P. multocida. Details: method as in Benoit et al., 2011. The following applies: P. multocida with erm(E); ref Benoit et al., 2011; cited from earlier work. The source says:
Bovine respiratory disease (BRD) associated with Mannheimia haemolytica, P. multocida, and Histophilus somni is one of the most economically important diseases that occur in feedlots, and the global losses are estimated at over $3 billion per year ([Watts and Sweeney, 2010]).

The subject of experiment [2] is Pasteurella multocida strains. As to the kind of experiment: MIC by broth microdilution (CLSI). It counts as cell-based. Conditions: drug alone, against three strains (D18, T5, and WJ11). How it is done: The susceptibility of the selected P. multocida isolates and the quality control isolate (ATCC 25922) to colistin, gamithromycin, cefquinome, enrofloxacin, tilmicosin, tylosin tartrate, and florfenicol alone was determined using the microdilution method in broth (conducted in triplicate) according to the guiding principles of the CLSI. Based on the action mechanism of each drug, the antimicrobial activity of colistin or cefquinome (drug A) in combination with gamithromycin, enrofloxacin, tilmicosin, tylosin tartrate, or florfenicol (drug B) was determined with the checkerboard method, according to the minimal inhibitory concentration (MIC) of each drug. Briefly, 50 μL of MH II broth was added to each well, and 50 μL of the indicated concentration of colistin or cefquinome was added into the first well of each line. This was followed by multiproportion dilution. Next, 50-μL samples of different concentrations of gamithromycin or the other drugs mentioned above were added to the dilution medium, and a 100 μL inoculum with a cell density of ∼1 × 10^6 colony-forming units (CFU)/mL was added to each well. The plates were then incubated at 37°C for 24 h. According to the EUCAST definitive document E.Def 1.2 ([Mccullough, 2010]), the fractional inhibitory concentration (FIC) index for combined administrations was defined as the sum of the FIC of drug A and the FIC of drug B, where FIC is the MIC of the drug combined with other drugs, divided by the MIC of the drug alone.

[3] abbreviates: Pasteurella multocida, read-out: MIC.

Structures can show the parent of a compound that is named as a salt. Where two headings read alike, the source gives them in different places. A value given as a limit tells only on which side of the number the result lay.

As for `CCCNC[C@]1(O)[C@H](C)O[C@@H](O[C@H]2[C@H](C)[C@@H](O[C@@H]3O[C@H](C)C[C@H](N(C)C)[C@H]3O)[C@](C)(O)C[C@@H](C)CN[C@H](C)[C@@H](O)[C@](C)(O)[C@@H](CC)OC(=O)[C@@H]2C)C[C@@]1(C)OC` [tulathromycin], the MIC in experiment [1] was at least 512 µg/mL.
In the case of `CS(=O)(=O)c1ccc([C@@H](O)[C@@H](CF)NC(=O)C(Cl)Cl)cc1` [florfenicol], the MIC in experiment [2] (setting [3]) is 2 to 4 µg/mL.
For the compound `CC[C@H]1OC(=O)C[C@@H](O)[C@H](C)[C@@H](O[C@@H]2O[C@H](C)[C@@H](O[C@H]3C[C@@](C)(O)[C@@H](O)[C@H](C)O3)[C@H](N(C)C)[C@H]2O)[C@@H](CC=O)C[C@@H](C)C(=O)/C=C/C(C)=C/[C@@H]1CO[C@@H]1O[C@H](C)[C@@H](O)[C@@H](OC)[C@H]1OC` [tylosin, tylosin tartrate], the MIC in experiment [1] was at least 512 µg/mL; in experiment [2] (setting [3]), above 64 µg/mL.
For the compound `CO/N=C(\C(=O)N[C@@H]1C(=O)N2C(C(=O)[O-])=C(C[n+]3cccc4c3CCCC4)CS[C@H]12)c1csc(N)n1` [cefquinome, Cefquinome], in experiment [2], the MIC result was “more than 64 mg/L”.
On to `CC[C@H]1OC(=O)C[C@@H](O)[C@H](C)[C@@H](O[C@@H]2O[C@H](C)[C@@H](O)[C@H](N(C)C)[C@H]2O)[C@@H](CCN2C[C@H](C)C[C@H](C)C2)C[C@@H](C)C(=O)/C=C/C(C)=C/[C@@H]1CO[C@@H]1O[C@H](C)[C@@H](O)[C@@H](OC)[C@H]1OC` [tilmicosin], for which the figures for the MIC in experiment [1] and in experiment [2] (setting [3]) were at least 512 µg/mL and 2 to 4 µg/mL, respectively.
In the case of `CCN1CCN(c2cc3c(cc2F)c(=O)c(C(=O)O)cn3C2CC2)CC1` [enrofloxacin, Enrofloxacin], the MIC in experiment [2] (setting [3]) is above 64 µg/mL.

The values are drawn from paper PMC7536268, “Increased Antimicrobial Activity of Colistin in Combination With Gamithromycin Against Pasteurella multocida in a Neutropenic Murine Lung Infection Model” (Frontiers in Microbiology, 2020).
